Data reported in the NIST ThermoML archive (doi:10.1021/je049808f).

Legend:
[1] = cn = amount concentration of the nth substance listed, in mol/dm3; settings: 100 kPa, Liquid
[2] = 298.15 K, Liquid; for viscosity: 100 kPa; for mass density: 101.33 kPa

[I-].[NH4+] [ammonium iodide] + CO
[1]
Settings	mass density [kg/m3]	viscosity [mPa·s]
298.15 K, c1 = 0.1696	807.2	0.597
298.15 K, c1 = 0.3281	826.3	0.628
298.15 K, c1 = 0.4765	845.4	0.674
298.15 K, c1 = 0.5841	859.1	0.692
298.15 K, c1 = 0.5862	859.4	0.688
298.15 K, c1 = 0.7482	881.8	0.737
298.15 K, c1 = 0.8737	899.4	0.771
298.15 K, c1 = 0.9947	916.9	0.802
298.15 K, c1 = 1.105	933.34	0.836
298.15 K, c1 = 1.209	949.2	0.865
298.15 K, c1 = 1.334	968.4	0.903
298.15 K, c1 = 1.417	981.5	0.93
298.15 K, c1 = 1.507	996.2	0.96
303.15 K, c1 = 0.1686	802.6	0.557
303.15 K, c1 = 0.3262	821.6	0.586
303.15 K, c1 = 0.4739	840.8	0.628
303.15 K, c1 = 0.581	854.5	0.648
303.15 K, c1 = 0.7443	877.2	0.688
303.15 K, c1 = 0.8692	894.8	0.719
303.15 K, c1 = 0.9897	912.3	0.749
303.15 K, c1 = 1.099	928.8	0.781
303.15 K, c1 = 1.203	944.6	0.809
303.15 K, c1 = 1.327	963.8	0.847
303.15 K, c1 = 1.41	976.9	0.868
303.15 K, c1 = 1.5	991.6	0.898
308.15 K, c1 = 0.1676	797.9	0.522
308.15 K, c1 = 0.3018	813.9	0.54
308.15 K, c1 = 0.4712	836.1	0.587
308.15 K, c1 = 0.5799	850.1	0.6
308.15 K, c1 = 0.7404	872.6	0.644
308.15 K, c1 = 0.8647	890.2	0.682
308.15 K, c1 = 0.9847	907.6	0.701
308.15 K, c1 = 1.094	924.3	0.729
308.15 K, c1 = 1.197	940	0.756
308.15 K, c1 = 1.321	959.2	0.789
308.15 K, c1 = 1.403	972.3	0.813
308.15 K, c1 = 1.493	987	0.84
313.15 K, c1 = 0.1667	793.1	0.49
313.15 K, c1 = 0.3001	809.2	0.506
313.15 K, c1 = 0.4686	831.4	0.551
313.15 K, c1 = 0.5767	845.4	0.563
313.15 K, c1 = 0.7364	867.9	0.604
313.15 K, c1 = 0.8602	885.5	0.631
313.15 K, c1 = 0.9797	903	0.658
313.15 K, c1 = 1.089	920	0.685
313.15 K, c1 = 1.191	935.4	0.71
313.15 K, c1 = 1.315	954.6	0.741
313.15 K, c1 = 1.397	967.7	0.763
313.15 K, c1 = 1.486	982.4	0.788

[I-].[NH4+] [ammonium iodide] + CCO
[1]
Settings	mass density [kg/m3]	viscosity [mPa·s]
298.15 K, c1 = 0.1638	804.1	1.229
298.15 K, c1 = 0.2289	811.7	1.275
298.15 K, c1 = 0.3302	823.9	1.35
298.15 K, c1 = 0.4015	832.7	1.414
298.15 K, c1 = 0.4696	841.1	1.495
298.15 K, c1 = 0.6094	859.4	1.557
298.15 K, c1 = 0.6694	867	1.598
298.15 K, c1 = 0.7343	875.8	1.663
298.15 K, c1 = 0.8676	894.5	1.77
298.15 K, c1 = 0.972	908.9	1.839
303.15 K, c1 = 0.1629	799.8	1.12
303.15 K, c1 = 0.2276	807.4	1.161
303.15 K, c1 = 0.3285	819.6	1.225
303.15 K, c1 = 0.3994	828.4	1.284
303.15 K, c1 = 0.4673	836.9	1.359
303.15 K, c1 = 0.6064	855.1	1.413
303.15 K, c1 = 0.6661	862.7	1.454
303.15 K, c1 = 0.7307	871.6	1.499
303.15 K, c1 = 0.8635	890.2	1.599
303.15 K, c1 = 0.9674	904.7	1.674
308.15 K, c1 = 0.162	795.5	1.048
308.15 K, c1 = 0.2264	803.1	1.059
308.15 K, c1 = 0.3268	815.3	1.117
308.15 K, c1 = 0.3974	824.1	1.165
308.15 K, c1 = 0.4658	834.2	1.241
308.15 K, c1 = 0.6033	850.8	1.287
308.15 K, c1 = 0.6628	858.4	1.327
308.15 K, c1 = 0.7271	867.3	1.365
308.15 K, c1 = 0.8593	885.9	1.459
308.15 K, c1 = 0.9628	900.4	1.544
313.15 K, c1 = 0.1611	791.1	0.935
313.15 K, c1 = 0.2252	798.8	0.968
313.15 K, c1 = 0.3251	811	1.02
313.15 K, c1 = 0.3952	819.7	1.062
313.15 K, c1 = 0.4634	829.3	1.1
313.15 K, c1 = 0.6003	846.5	1.175
313.15 K, c1 = 0.6595	854.1	1.226
313.15 K, c1 = 0.7235	863	1.246
313.15 K, c1 = 0.8551	881.6	1.324
313.15 K, c1 = 0.9582	896.1	1.388

CCO [ethanol]
[2]
Settings	mass density [kg/m3]	viscosity [mPa·s]
–	785.2	1.082

[I-].[K+] [potassium iodide] + CO
[1]
Settings	mass density [kg/m3]	viscosity [mPa·s]
298.15 K, c1 = 0.0906	800.8	0.578
298.15 K, c1 = 0.1458	809	0.598
298.15 K, c1 = 0.1806	814.3	0.609
298.15 K, c1 = 0.2451	824.3	0.628
298.15 K, c1 = 0.3767	845.3	0.665
298.15 K, c1 = 0.4151	851.6	0.677
298.15 K, c1 = 0.4787	862.2	0.695
298.15 K, c1 = 0.5381	872.4	0.724
298.15 K, c1 = 0.614	885.4	0.737
298.15 K, c1 = 0.6541	892.7	0.75
303.15 K, c1 = 0.0901	796.1	0.539
303.15 K, c1 = 0.1449	804.3	0.558
303.15 K, c1 = 0.1795	809.6	0.568
303.15 K, c1 = 0.2437	819.5	0.587
303.15 K, c1 = 0.3745	840.6	0.62
303.15 K, c1 = 0.4127	846.8	0.631
303.15 K, c1 = 0.476	857.5	0.653
303.15 K, c1 = 0.535	867.6	0.664
303.15 K, c1 = 0.6106	880.5	0.685
303.15 K, c1 = 0.6505	887.8	0.697
308.15 K, c1 = 0.0895	791.3	0.504
308.15 K, c1 = 0.1441	799.6	0.522
308.15 K, c1 = 0.1785	804.9	0.532
308.15 K, c1 = 0.2423	814.8	0.548
308.15 K, c1 = 0.3724	835.8	0.58
308.15 K, c1 = 0.4104	842	0.59
308.15 K, c1 = 0.4733	852.7	0.615
308.15 K, c1 = 0.5321	862.8	0.623
308.15 K, c1 = 0.6073	875.7	0.639
308.15 K, c1 = 0.647	883	0.651
313.15 K, c1 = 0.1432	794.8	0.489
313.15 K, c1 = 0.1774	800.1	0.498
313.15 K, c1 = 0.2409	810	0.513
313.15 K, c1 = 0.3704	831.1	0.543
313.15 K, c1 = 0.4081	837.2	0.552
313.15 K, c1 = 0.4707	847.8	0.572
313.15 K, c1 = 0.5291	858	0.58
313.15 K, c1 = 0.604	870.8	0.598
313.15 K, c1 = 0.6435	878.1	0.608

CO [methanol]
[2]
Settings	mass density [kg/m3]	viscosity [mPa·s]
–	786.2	0.545
